{"source": "patent US12528818B2", "about": "“Compositions and methods for inhibition of RAS” (Leidos Biomedical Research, Inc., priority 2021, dated 2026)", "data": [{"system": "pERK in NCI-H358 cells", "experiment": "Cell-based pERK HTRF assay (pERK inhibition in H358 cells)", "settings": "Homo sapiens, NCI-H358, 0.5 h, pERK inhibition IC50, NCI-H358 cells, 30 min incubation; read-out: PERK in H358 cell", "units": {"IC50": "nM"}, "values": [{"smiles": "C=CC(=O)N1C[C@@H](F)[C@@H](N(C)c2nc(OC[C@@]34CCCN3C[C@H](F)C4)nc3cc(-c4ccc(F)c5sc(N)c(C#N)c45)c(C#N)cc23)C1", "note": "[Compound 372]", "IC50": "< 100"}, {"smiles": "C=CC(=O)N1CC[C@@H](N(C)c2nc(OC[C@@]34CCCN3C[C@H](F)C4)nc3c(F)c(-c4ccc(F)c5sc(N)nc45)c(C#N)cc23)[C@H]1C", "note": "[Compound 373]", "IC50": "100 to 1000"}, {"smiles": "C=CC(=O)N1C[C@@H](F)[C@@H](N(C)c2nc(OCC34CCCN3CCC4)nc3c(F)c(-c4ccc(F)c5sc(N)c(C#N)c45)c(C(F)(F)F)cc23)C1", "note": "[Compound 374]", "IC50": "< 100"}, {"smiles": "C=CC(=O)N1C[C@@H](F)[C@@H](N(CC)c2nc(OC[C@@]34CCCN3C[C@H](F)C4)nc3cc(-c4ccc(F)c5sc(N)c(C#N)c45)c(C(F)(F)F)cc23)C1", "note": "[Compound 375]", "IC50": "< 100"}, {"smiles": "C=CC(=O)N1C[C@@H](F)[C@@H](N(CC)c2nc(OCC34CCCN3CCC4)nc3cc(-c4ccc(F)c5sc(N)c(C#N)c45)c(C(F)(F)F)cc23)C1", "note": "[Compound 376]", "IC50": "< 100"}, {"smiles": "C=CC(=O)N1C[C@@H](F)[C@@H](N(CC)c2nc(OC[C@@]34CCCN3C[C@H](F)C4)nc3cc(-c4ccc(F)c5sc(N)c(C#N)c45)ccc23)C1", "note": "[Compound 377]", "IC50": "< 100"}, {"smiles": "C=CC(=O)N1C[C@H](C)N(c2nc(OC[C@@]34CCCN3C[C@H](F)C4)nc3c(F)c(-c4ccc(F)c5sc(NC(C)=O)c(C#N)c45)c(C(F)(F)F)cc23)C[C@H]1C", "note": "[Compound 378]", "IC50": "100 to 1000"}, {"smiles": "C=CC(=O)N1C[C@@H](F)[C@@H](N(C)c2nc(OC[C@@]34CCCN3C[C@H](F)C4)nc3c(C#N)c(-c4ccc(F)c5sc(N)c(C#N)c45)c(Cl)cc23)C1", "note": "[Compound 379]", "IC50": "< 100"}, {"smiles": "C=CC(=O)N1C[C@@H](F)[C@@H](N(CC)c2nc(OC[C@@]34CCCN3C[C@H](F)C4)nc3c(C#N)c(-c4ccc(F)c5sc(N)c(C#N)c45)c(Cl)cc23)C1", "note": "[Compound 380]", "IC50": "< 100"}, {"smiles": "C=CC(=O)N1CC[C@@H](N(C)c2nc(OC[C@@]34CCCN3C[C@H](F)C4)nc3c(F)c(-c4ccc(F)c5sc(N)c(C#N)c45)c(C(F)(F)F)cc23)[C@H]1C", "note": "[Compound 381, 4-(4-(((2R,3R)-1-acryloyl-2-methylpyrrolidin-3-yl)(methyl)amino)-8-fluoro-2-(((2R,7aS)-2-fluorotetrahydro-1H-pyrrolizin-7a(5H)-yl)methoxy)-6-(trifluoromethyl)quinazolin-7-yl)-2-amino-7-fluorobenzo[b]thiophene-3-carbonitrile]", "IC50": "< 100"}, {"smiles": "C=CC(=O)N1C[C@H](C)N(c2ncnc3c(F)c(-c4ccc(F)c5sc(N)c(C#N)c45)c(C(F)(F)F)cc23)C[C@H]1C", "note": "[Compound 382]", "IC50": "< 100"}, {"smiles": "C=CC(=O)N1CC[C@@H](N(C)c2ncnc3c(F)c(-c4ccc(F)c5sc(N)c(C#N)c45)c(C(F)(F)F)cc23)C1", "note": "[Compound 383, 4-(4-(((R)-1-acryloylpyrrolidin-3-yl)(methyl)amino)-8-fluoro-6-(trifluoromethyl)quinazolin-7-yl)-2-amino-7-fluorobenzo[b]thiophene-3-carbonitrile]", "IC50": "< 100"}, {"smiles": "C=CC(=O)N1CC[C@@H](N(C)c2nc(OC)nc3c(F)c(-c4ccc(F)c5sc(N)c(C#N)c45)c(C(F)(F)F)cc23)C1", "note": "[Compound 384]", "IC50": "< 100"}, {"smiles": "C=CC(=O)N1C[C@H](C)N(c2nc(OC)nc3c(F)c(-c4ccc(F)c5sc(N)c(C#N)c45)c(C(F)(F)F)cc23)C[C@H]1C", "note": "[Compound 385]", "IC50": "< 100"}, {"smiles": "C=CC(=O)N1C[C@@H](F)[C@@H](N(CC)c2nc(OC[C@@]34CCCN3C[C@H](F)C4)nc3cc(-c4ccc(F)c5sc(N)c(C#N)c45)c(C#N)cc23)C1", "note": "[Compound 386]", "IC50": "< 100"}, {"smiles": "C=CC(=O)N1CCC(N(C)c2nc(OC[C@@]34CCCN3C[C@H](F)C4)nc3cc(-c4ccc(F)c5sc(N)c(C#N)c45)c(C#N)cc23)[C@H]1C", "note": "(stereo partly drawn) [Compound 387, 4-((1-acryloyl-2-methylpyrrolidin-3-yl)(methyl)amino)-7-(2-amino-3-cyano-7-fluorobenzo[b]thiophen-4-yl)-2-(((2R,7aS)-2-fluorotetrahydro-1H-pyrrolizin-7a(5H)-yl)methoxy)quinazoline-6-carbonitrile]", "IC50": "< 100"}, {"smiles": "C=CC(=O)N1CCC(N(C)c2nc(OC[C@@]34CCCN3C[C@H](F)C4)nc3c(C#N)c(-c4ccc(F)c5sc(N)c(C#N)c45)c(Cl)cc23)[C@H]1C", "note": "(stereo partly drawn) [Compound 388, 4-((1-acryloyl-2-methylpyrrolidin-3-yl)(methyl)amino)-7-(2-amino-3-cyano-7-fluorobenzo[b]thiophen-4-yl)-6-chloro-2-(((2R,7aS)-2-fluorotetrahydro-1H-pyrrolizin-7a(5H)-yl)methoxy)quinazoline-8-carbonitrile]", "IC50": "< 100"}, {"smiles": "C=CC(=O)N1CCC(N(C)c2nc(OC[C@@]34CCCN3C[C@H](F)C4)nc3cc(-c4ccc(F)c5sc(N)c(C#N)c45)ccc23)[C@H]1COC", "note": "(stereo partly drawn) [Compound 389, 4-(4-((1-acryloyl-2-(methoxymethyl)pyrrolidin-3-yl)(methyl)amino)-2-(((2R,7aS)-2-fluorotetrahydro-1H-pyrrolizin-7a(5H)-yl)methoxy)quinazolin-7-yl)-2-amino-7-fluorobenzo[b]thiophene-3-carbonitrile]", "IC50": "< 100"}, {"smiles": "C=CC(=O)N1CC[C@@H](N(C)c2nc(OC[C@@]34CCCN3C[C@H](F)C4)nc3cc(-c4ccc(F)c5sc(N)c(C#N)c45)c(F)cc23)[C@H]1C", "note": "[Compound 390, 4-(4-((1-acryloyl-2-methylpyrrolidin-3-yl)(methyl)amino)-6-fluoro-2-(((2R,7aS)-2-fluorotetrahydro-1H-pyrrolizin-7a(5H)-yl)methoxy)quinazolin-7-yl)-2-amino-7-fluorobenzo[b]thiophene-3-carbonitrile]", "IC50": "< 100"}, {"smiles": "C=CC(=O)N1CC[C@@H](N(C)c2nc(OC[C@@]34CCCN3C[C@H](F)C4)nc3cc(-c4ccc(F)c5sc(N)c(C#N)c45)c(F)cc23)[C@H]1COC", "note": "[Compound 391]", "IC50": "< 100"}, {"smiles": "C=CC(=O)N1CCC(N(CC)c2nc(OC[C@@H]3C[C@@H](OC)CN3C)nc3c(F)c(-c4ccc(F)c5sc(N)c(C#N)c45)c(C(F)(F)F)cc23)[C@H]1C", "note": "(some centres unmarked) [Compound 392]", "IC50": "< 100"}, {"smiles": "C=CC(=O)N1CC[C@@H](N(C)c2nc(OC[C@@]34CCCN3C[C@H](F)C4)nc3cc(-c4ccc(F)c5sc(N)c(C#N)c45)c(C#N)cc23)[C@H]1COC", "note": "[Compound 393]", "IC50": "< 100"}, {"smiles": "C=CC(=O)N1CCC(N(C)c2nc(OC[C@@]34CCCN3C[C@H](F)C4)nc3c(C#N)c(-c4ccc(F)c5sc(N)c(C#N)c45)ccc23)[C@H]1COC", "note": "(some centres unmarked) [Compound 394]", "IC50": "100 to 1000"}, {"smiles": "C=CC(=O)N1CC[C@@H](N(C)c2nc(OC[C@@]34CCCN3C[C@H](F)C4)nc3c(F)c(-c4ccc(F)c5sc(N)c(C#N)c45)c(Cl)cc23)[C@H]1C", "note": "[Compound 395, 4-(4-((1-acryloyl-2-methylpyrrolidin-3-yl)(methyl)amino)-6-chloro-8-fluoro-2-(((2R,7aS)-2-fluorotetrahydro-1H-pyrrolizin-7a(5H)-yl)methoxy)quinazolin-7-yl)-2-amino-7-fluorobenzo[b]thiophene-3-carbonitrile]", "IC50": "< 100"}, {"smiles": "C=CC(=O)N1CCC(N(CC)c2nc(OC[C@@H]3CCCN3C)nc3c(F)c(-c4ccc(F)c5sc(N)c(C#N)c45)c(C(F)(F)F)cc23)[C@H]1C", "note": "(some centres unmarked) [Compound 396]", "IC50": "< 100"}, {"smiles": "C=CC(=O)N1CCC(N(C)c2nc(OC[C@@H]3C[C@@H](F)CN3C)nc3c(F)c(-c4ccc(F)c5sc(N)c(C#N)c45)c(C(F)(F)F)cc23)[C@H]1C", "note": "(some centres unmarked) [Compound 399]", "IC50": "< 100"}, {"smiles": "C=CC(=O)N1CCC(N(C)c2nc(OC[C@@H]3CCCN3C)nc3c(F)c(-c4ccc(F)c5sc(N)c(C#N)c45)c(C(F)(F)F)cc23)[C@H]1C", "note": "(some centres unmarked) [Compound 400]", "IC50": "< 100"}, {"smiles": "C=CC(=O)N1CC[C@@H](N(C)c2nc(OC[C@@]34CCCN3C[C@H](F)C4)nc3c(F)c(-c4ccc(F)c5sc(N)c(C#N)c45)c(C(F)(F)F)cc23)[C@H]1COC", "note": "[Compound 401]", "IC50": "< 100"}, {"smiles": "C=CC(=O)N1CCC(N(C)c2nc(OC[C@@]34CCCN3C[C@H](F)C4)nc3c(F)c(-c4ccc(F)c5sc(N)c(C#N)c45)ccc23)[C@H]1COC", "note": "(some centres unmarked) [Compound 402]", "IC50": "< 100"}, {"smiles": "C=CC(=O)N1CC[C@@H](N(CC)c2nc(OC[C@@]34CCCN3C[C@H](F)C4)nc3c(F)c(-c4ccc(F)c5sc(N)c(C#N)c45)c(C(F)(F)F)cc23)[C@H]1C", "note": "[Compound 403]", "IC50": "< 100"}, {"smiles": "C=CC(=O)N1CCC(N(C)c2nc(OC[C@@]34CCCN3C[C@H](F)C4)nc3c(C#N)c(-c4ccc(F)c5sc(N)c(C#N)c45)ccc23)[C@H]1C", "note": "(some centres unmarked) [Compound 404]", "IC50": "100 to 1000"}, {"smiles": "C=CC(=O)N1CCC(N(CC)c2nc(OC[C@@H]3CC4(CC4)CN3C)nc3c(F)c(-c4ccc(F)c5sc(N)c(C#N)c45)c(C(F)(F)F)cc23)[C@H]1C", "note": "(some centres unmarked) [Compound 405]", "IC50": "< 100"}, {"smiles": "C=CC(=O)N1C[C@H](C)N(c2nc(OC[C@@H]3C[C@@H](F)CN3C)nc3c(F)c(-c4ccc(F)c5sc(N)c(C#N)c45)c(C(F)(F)F)cc23)C[C@H]1C", "note": "[Compound 406]", "IC50": "< 100"}, {"smiles": "C=CC(=O)N1CCC(N(C)c2nc(OC[C@@H]3C[C@@H](OC)CN3C)nc3c(F)c(-c4ccc(F)c5sc(N)c(C#N)c45)c(C(F)(F)F)cc23)[C@H]1C", "note": "(some centres unmarked) [Compound 407]", "IC50": "< 100"}, {"smiles": "C=CC(=O)N1C[C@H](C)N(c2nc(OC[C@@H]3C[C@@H](OC)CN3C)nc3c(F)c(-c4ccc(F)c5sc(N)c(C#N)c45)c(C(F)(F)F)cc23)C[C@H]1C", "note": "[Compound 408]", "IC50": "< 100"}, {"smiles": "C=CC(=O)N1CCC(N(C)c2nc(OC[C@@H]3CC4(CC4)CN3C)nc3c(F)c(-c4ccc(F)c5sc(N)c(C#N)c45)c(C(F)(F)F)cc23)[C@H]1C", "note": "(some centres unmarked) [Compound 409]", "IC50": "< 100"}, {"smiles": "C=CC(=O)N1C[C@H](C)N(c2nc(OC[C@@H]3CC4(CC4)CN3C)nc3c(F)c(-c4ccc(F)c5sc(N)c(C#N)c45)c(C(F)(F)F)cc23)C[C@H]1C", "note": "[Compound 410, 4-(4-((2S,5R)-4-acryloyl-2,5-dimethylpiperazin-1-yl)-8-fluoro-2-(((S)-5-methyl-5-azaspiro[2.4]heptan-6-yl)methoxy)-6-(trifluoromethyl)quinazolin-7-yl)-2-amino-7-fluorobenzo[b]thiophene-3-carbonitrile]", "IC50": "< 100"}, {"smiles": "C=CC(=O)N1CCC(N(CC)c2nc(OC[C@@]34CCCN3C[C@H](F)C4)nc3c(C#N)c(-c4ccc(F)c5sc(N)c(C#N)c45)c(Cl)cc23)[C@H]1C", "note": "(some centres unmarked) [Compound 411]", "IC50": "< 100"}]}]}
